The series concerns CCRIS mutagenicity, Ames/micronucleus/aberration tests. Description: CCRIS mutagenicity studies.
Setting [1] is: Test System: AMES SALMONELLA TYPHIMURIUM, Strain/Indicator: TA97, Metabolic Activation: NONE, Method: STANDARD PLATE.
Setting [2] is: Test System: AMES SALMONELLA TYPHIMURIUM, Strain/Indicator: TA98, Metabolic Activation: RAT, LIVER, S-9, AROCLOR 1254, Method: PREINCUBATION
Where [3] appears, read: Test System: AMES SALMONELLA TYPHIMURIUM, Strain/Indicator: TA98, Metabolic Activation: RAT, LIVER, S-9, AROCLOR 1254, Method: STANDARD PLATE.
The mark [4] stands for this setting: Test System: AMES SALMONELLA TYPHIMURIUM, Strain/Indicator: TA100, Metabolic Activation: NONE, Method: STANDARD PLATE.
Where [5] appears, read: Test System: AMES SALMONELLA TYPHIMURIUM, Strain/Indicator: TA100, Metabolic Activation: RAT, LIVER, S-9, AROCLOR 1254, Method: STANDARD PLATE.
[6] abbreviates: Test System: AMES SALMONELLA TYPHIMURIUM, Strain/Indicator: TA1535, Metabolic Activation: RAT, LIVER, S-9, AROCLOR 1254, Method: STANDARD PLATE.
[7] abbreviates: Test System: AMES SALMONELLA TYPHIMURIUM, Strain/Indicator: TA1538, Metabolic Activation: RAT, LIVER, S-9, AROCLOR 1254, Method: STANDARD PLATE.
The mark [8] stands for this setting: Test System: AMES SALMONELLA TYPHIMURIUM, Strain/Indicator: TA98, Metabolic Activation: NONE, Method: STANDARD PLATE.
Where [9] appears, read: Test System: AMES SALMONELLA TYPHIMURIUM, Strain/Indicator: TA1535, Metabolic Activation: NONE, Method: STANDARD PLATE.
Where [10] appears, read: Test System: AMES SALMONELLA TYPHIMURIUM, Strain/Indicator: TA1537, Metabolic Activation: NONE, Method: STANDARD PLATE.
Where [11] appears, read: Test System: AMES SALMONELLA TYPHIMURIUM, Strain/Indicator: TA1538, Metabolic Activation: NONE, Method: STANDARD PLATE.

Molecules are shown by their SMILES. The source made the active and inactive calls. No rule for the calls is given here.

The source of these data is PubChem BioAssay AID1259407 (Chemical Carcinogenesis Research Information System (CCRIS), 2018).

Take `O=C/C=C/C=C/C=O`: the mutagenic call was “inactive; negative” (Test System: AMES SALMONELLA TYPHIMURIUM, Strain/Indicator: TA97, Metabolic Activation: NONE, Method: PREINCUBATION); “active; positive” under setting [1]; “inactive; negative” (Test System: AMES SALMONELLA TYPHIMURIUM, Strain/Indicator: TA97, Metabolic Activation: RAT, LIVER, S-9, AROCLOR 1254, Method: PREINCUBATION); “active; positive” (Test System: AMES SALMONELLA TYPHIMURIUM, Strain/Indicator: TA97, Metabolic Activation: RAT, LIVER, S-9, AROCLOR 1254, Method: STANDARD PLATE); “inactive; negative” (Test System: AMES SALMONELLA TYPHIMURIUM, Strain/Indicator: TA98, Metabolic Activation: NONE, Method: PREINCUBATION); “inactive; negative” under setting [2]. Moreover, the mutagenic call is, setting by setting: under setting [3], “inactive; negative”; (Test System: AMES SALMONELLA TYPHIMURIUM, Strain/Indicator: TA100, Metabolic Activation: NONE, Method: PREINCUBATION) “inactive; negative”; under setting [4], “inactive; negative”; (Test System: AMES SALMONELLA TYPHIMURIUM, Strain/Indicator: TA100, Metabolic Activation: RAT, LIVER, S-9, AROCLOR 1254, Method: PREINCUBATION) “inactive; negative”; under setting [5], “inactive; negative”; (Test System: AMES SALMONELLA TYPHIMURIUM, Strain/Indicator: TA102, Metabolic Activation: NONE, Method: PREINCUBATION) “inactive; negative”. Also, the mutagenic call is, setting by setting: (Test System: AMES SALMONELLA TYPHIMURIUM, Strain/Indicator: TA102, Metabolic Activation: RAT, LIVER, S-9, AROCLOR 1254, Method: PREINCUBATION) “inactive; negative”; (Test System: AMES SALMONELLA TYPHIMURIUM, Strain/Indicator: TA104, Metabolic Activation: NONE, Method: PREINCUBATION) “inactive; negative”; (Test System: AMES SALMONELLA TYPHIMURIUM, Strain/Indicator: TA104, Metabolic Activation: RAT, LIVER, S-9, AROCLOR 1254, Method: PREINCUBATION) “inactive; negative”; (Test System: AMES SALMONELLA TYPHIMURIUM, Strain/Indicator: TA1535, Metabolic Activation: NONE, Method: PREINCUBATION) “inactive; negative”; (Test System: AMES SALMONELLA TYPHIMURIUM, Strain/Indicator: TA1535, Metabolic Activation: RAT, LIVER, S-9, AROCLOR 1254, Method: PREINCUBATION) “inactive; negative”; under setting [6], “inactive; negative”. Moreover, the mutagenic call runs as follows: under setting [7], “inactive; negative”; (Test System: CHINESE HAMSTER OVARY, Strain/Indicator: CHO-K1-BH4 (HGPRT), Metabolic Activation: NONE, Method: STANDARD PLATE) “inactive; negative”; (Test System: CHINESE HAMSTER V-79, Strain/Indicator: V-79 (HGPRT)/8-AZAGUANINE, Metabolic Activation: NONE) “active; positive”; (Test System: CHINESE HAMSTER V-79, Strain/Indicator: V-79/6-THIOGUANINE, Metabolic Activation: NONE) “active; positive”; (Test System: E. COLI, Strain/Indicator: WP2 UVRA, Metabolic Activation: NONE, Method: PREINCUBATION) “inactive; negative”; (Test System: E. COLI, Strain/Indicator: WP2 UVRA, Metabolic Activation: RAT, LIVER, S-9, AROCLOR 1254, Method: PREINCUBATION) “inactive; negative”. The mutagenic call (Test System: UDS RODENT HEPATOCYTES, Strain/Indicator: THY INCORP (NON-S-PHASE), Metabolic Activation: NONE, Method: AUTORADIOGRAPHY) was “inactive; negative”.

Take `O=C1OC(=C(Cl)Cl)C=C1Cl`: the mutagenic call under setting [4] was “active; positive”.

Regarding `O=c1cc(-c2ccccc2)cc(-c2ccccc2)n1/N=C/c1ccc([N+](=O)[O-])o1`, the mutagenic call runs as follows: under setting [1], “inactive; negative”; under setting [8], “inactive; negative”; under setting [4], “active; positive”; (Test System: AMES SALMONELLA TYPHIMURIUM, Strain/Indicator: TA102, Metabolic Activation: NONE, Method: STANDARD PLATE) “inactive; negative”.

As for `O=C([O-])c1ccc2ccccc2c1.[Mn+2].[O-]C(O)c1ccc2ccccc2c1`, the mutagenic call runs as follows: (Test System: AMES SALMONELLA TYPHIMURIUM, Strain/Indicator: TA98, Metabolic Activation: HAMSTER, LIVER, S-9, AROCLOR 1254 (10%), Method: STANDARD PLATE) “inactive; negative”; under setting [8], “inactive; negative”; (Test System: AMES SALMONELLA TYPHIMURIUM, Strain/Indicator: TA98, Metabolic Activation: RAT, LIVER, S-9, AROCLOR 1254 (10%), Method: STANDARD PLATE) “inactive; negative”; (Test System: AMES SALMONELLA TYPHIMURIUM, Strain/Indicator: TA100, Metabolic Activation: HAMSTER, LIVER, S-9, AROCLOR 1254 (10%), Method: STANDARD PLATE) “inactive; negative”; under setting [4], “inactive; negative”; (Test System: AMES SALMONELLA TYPHIMURIUM, Strain/Indicator: TA100, Metabolic Activation: RAT, LIVER, S-9, AROCLOR 1254 (10%), Method: STANDARD PLATE) “inactive; negative”. Also, the mutagenic call is “inactive; negative” (Test System: AMES SALMONELLA TYPHIMURIUM, Strain/Indicator: TA1535, Metabolic Activation: HAMSTER, LIVER, S-9, AROCLOR 1254 (10%), Method: STANDARD PLATE); “inactive; negative” under setting [9]; “inactive; negative” (Test System: AMES SALMONELLA TYPHIMURIUM, Strain/Indicator: TA1535, Metabolic Activation: RAT, LIVER, S-9, AROCLOR 1254 (10%), Method: STANDARD PLATE); “inactive; negative” (Test System: AMES SALMONELLA TYPHIMURIUM, Strain/Indicator: TA1537, Metabolic Activation: HAMSTER, LIVER, S-9, AROCLOR 1254 (10%), Method: STANDARD PLATE); “inactive; negative” under setting [10]; “inactive; negative” (Test System: AMES SALMONELLA TYPHIMURIUM, Strain/Indicator: TA1537, Metabolic Activation: RAT, LIVER, S-9, AROCLOR 1254 (10%), Method: STANDARD PLATE). In addition, the mutagenic call runs as follows: (Test System: AMES SALMONELLA TYPHIMURIUM, Strain/Indicator: TA1538, Metabolic Activation: HAMSTER, LIVER, S-9, AROCLOR 1254 (10%), Method: STANDARD PLATE) “inactive; negative”; under setting [11], “inactive; negative”; (Test System: AMES SALMONELLA TYPHIMURIUM, Strain/Indicator: TA1538, Metabolic Activation: RAT, LIVER, S-9, AROCLOR 1254 (10%), Method: STANDARD PLATE) “inactive; negative”.

In the case of `Cc1cnc2c(ccc3c2nc(N)n3C)n1`, the mutagenic call was “active; positive” under setting [2] and “active; positive” under setting [3].

On to `Nc1c(O)cccc1[N+](=O)[O-]`, for which the mutagenic call is, setting by setting: under setting [8], “inactive; negative”; under setting [3], “inactive; negative”; under setting [4], “inactive; negative”; under setting [5], “inactive; negative”; under setting [9], “inactive; negative”; under setting [6], “inactive; negative”. Further, the mutagenic call by setting is: under setting [10], “inactive; negative”; (Test System: AMES SALMONELLA TYPHIMURIUM, Strain/Indicator: TA1537, Metabolic Activation: RAT, LIVER, S-9, AROCLOR 1254, Method: STANDARD PLATE) “inactive; negative”; under setting [11], “inactive; negative”; under setting [7], “inactive; negative”.

Turning to `Nc1ccc(-c2ccc(Cl)cc2)cc1`, the mutagenic call runs as follows: under setting [8], “inactive; negative”; under setting [3], “active; positive”; under setting [4], “inactive; negative”; under setting [5], “active; positive”.
